Source: publication PMC10926604, “Discovery of a novel small molecule as CD47/SIRPα and PD-1/PD-L1 dual inhibitor for cancer immunotherapy” (Cell Communication and Signaling : CCS, 2024)

Assays:
[1] = system: MC38 tumor-bearing mice; assay: MC38 tumor model, SMC18 combined with radiotherapy; format: in vivo, mouse; details: one 20 Gy dose local IR + SMC18 2 mg/kg i.p. daily for 14 days
Description: For the combined radiotherapy treatment model, mice were randomly grouped into four groups when the tumor volume reached approximately 40 ~ 60 mm^3. Mice were treated with a single dose of 20 Gy of local tumor irradiation (Precision X-Ray, XRad320) and daily intraperitoneal injections of SMC18 (2 mg/kg) or equivalent amount of saline for 14 days. Tumor volume was measured every other day using the formula V = 1/2 × a × b × c, where a, b, and c are the tumor's length, width, and height, respectively.

[2] = system: MC38 tumor-bearing mice; assay: MC38 tumor model; format: in vivo, mouse; details: 2 or 6 mg/kg i.p. daily for 14 days
Description: The animal studies were conducted in accordance with the guidelines and approved by the Ethics Committee of Zhengzhou University (ZZUIRB 2021–36). Six weeks old female mice were purchased from the Vital River Laboratory (Beijing, China). Mouse MC38 colorectal cancer cells (1 × 10^6) were harvested and subcutaneously (s.c.) injected into the right abdomen of the mice. When the tumor size reached 40 ~ 80 mm^3, the mice were randomly assigned into three groups (n = 5 per group) to receive intraperitoneal injections daily of SMC18 (2 mg/kg), SMC18 (6 mg/kg) or normal saline for 14 days. At day 23, mice were euthanized for ex vivo analysis.

Cc1cc(C)cc(NS(=O)(=O)c2ccc3[nH]cc(C(=O)NCCc4ccccc4)c(=O)c3c2)c1 [SMC18]
body weight of the mice, combination with radiotherapy [1]: without affecting | tumor growth, combination with radiotherapy [1]: significantly inhibited | body weight of tumor-bearing mice [2]: without affecting | growth of MC38 tumors [2]: effectively delayed
